ChEMBL document CHEMBL1138974 (Bioorg Med Chem Lett, 2006)

Tested on: not listed separately
Assay: Intrinsic clearance in mouse microsome
Type: ADME
Conditions: microsomes

microsomal CLint	Structure (SMILES)
16 µL/min/mg	O=C1NCC(c2ccc(F)cc2)C12CCN(C1CCCCC1(O)c1cccc(F)c1)CC2 (single isomer, unassigned; diastereomer 2)
39 µL/min/mg	O=C1NCC(c2ccc(F)cc2)C12CCN(C1CCCCC1(O)c1ccccc1F)CC2 (single isomer, unassigned; diastereomer 4)

Tested on: not listed separately
Assay: Intrinsic clearance in human microsome
Type: ADME
Conditions: microsomes

microsomal CLint	Structure (SMILES)
11 µL/min/mg	O=C1NCC(c2ccc(F)cc2)C12CCN(C1CCCCC1(O)c1cccc(F)c1)CC2 (single isomer, unassigned; diastereomer 2)
28 µL/min/mg	O=C1NCC(c2ccc(F)cc2)C12CCN(C1CCCCC1(O)c1ccccc1F)CC2 (single isomer, unassigned; diastereomer 4)

Molecular target: T1, Sodium- and chloride-dependent glycine transporter 1 (Homo sapiens, UniProt P48067)
T1 sequence (P48067 whole entry): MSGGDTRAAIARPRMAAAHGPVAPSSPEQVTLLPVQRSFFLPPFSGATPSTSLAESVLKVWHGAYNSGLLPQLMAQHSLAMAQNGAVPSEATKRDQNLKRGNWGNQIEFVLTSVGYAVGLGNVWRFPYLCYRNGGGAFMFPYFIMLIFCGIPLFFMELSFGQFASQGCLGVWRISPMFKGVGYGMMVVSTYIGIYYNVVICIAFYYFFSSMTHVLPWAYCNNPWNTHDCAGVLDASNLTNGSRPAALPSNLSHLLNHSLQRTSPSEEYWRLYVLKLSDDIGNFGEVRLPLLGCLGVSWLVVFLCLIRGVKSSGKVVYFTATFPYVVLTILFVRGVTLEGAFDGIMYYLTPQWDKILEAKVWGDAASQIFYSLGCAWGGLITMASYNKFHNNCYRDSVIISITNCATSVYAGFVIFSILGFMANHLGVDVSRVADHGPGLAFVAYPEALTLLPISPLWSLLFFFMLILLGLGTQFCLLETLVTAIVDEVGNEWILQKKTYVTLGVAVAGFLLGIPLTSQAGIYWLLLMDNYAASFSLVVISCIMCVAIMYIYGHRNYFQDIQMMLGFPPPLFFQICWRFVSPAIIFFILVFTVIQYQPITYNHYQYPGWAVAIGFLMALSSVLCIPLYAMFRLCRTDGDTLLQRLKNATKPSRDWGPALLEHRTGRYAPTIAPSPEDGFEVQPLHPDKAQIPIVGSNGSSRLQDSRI
Assay: Inhibition of [3H]glycine uptake at human GlyT1 by radiometric assay
Conditions: not given

Structure (SMILES)	EC50
O=C1NCN(c2ccccc2)C12CCN(C1CCCCC1(O)c1ccccc1)CC2 (stereo not given)	44 nM
COc1ccc(C2(O)CCCCC2N2CCC3(CC2)C(=O)NCC3c2ccccc2)cc1 (stereo not given)	4480 nM
CS(=O)(=O)c1ccc(C2(O)CCCCC2N2CCC3(CC2)C(=O)NCC3c2ccc(F)cc2)cc1 (stereo not given)	18600 nM
COc1cccc(C2(O)CCCCC2N2CCC3(CC2)C(=O)NCC3c2ccccc2)c1 (stereo not given)	> 30000 nM
COc1ccc(C2(O)CCCCC2N2CCC3(CC2)C(=O)NCC3c2ccc(F)cc2)cc1 (single isomer, unassigned; diastereomer 1)	3300 nM
Cc1cccc(C2(O)CCCCC2N2CCC3(CC2)C(=O)NCC3c2ccc(F)cc2)c1 (single isomer, unassigned; diastereomer 1)	2640 nM
CC(C)(C)c1ccc(C2(O)CCCCC2N2CCC3(CC2)C(=O)NCC3c2ccc(F)cc2)cc1 (single isomer, unassigned; diastereomer 1)	> 30000 nM
O=C1NCC(c2ccc(F)cc2)C12CCN(C1CCCCC1(O)c1cccc(Cl)c1)CC2 (single isomer, unassigned; diastereomer 1)	6250 nM
N#Cc1ccc(C2(O)CCCCC2N2CCC3(CC2)C(=O)NCC3c2ccc(F)cc2)cc1 (single isomer, unassigned; diastereomer 2)	11300 nM
Cc1ccc(C2(O)CCCCC2N2CCC3(CC2)C(=O)NCC3c2ccc(F)cc2)cc1 (single isomer, unassigned; diastereomer 2)	> 30000 nM
O=C1NCC(c2ccccc2)C12CCN(C1CCCCC1(O)c1ccc(F)cc1)CC2 (single isomer, unassigned; diastereomer 2)	825 nM
Cc1cccc(C2(O)CCCCC2N2CCC3(CC2)C(=O)NCC3c2ccc(F)cc2)c1 (single isomer, unassigned; diastereomer 2)	10700 nM
COc1cccc(C2(O)CCCCC2N2CCC3(CC2)C(=O)NCC3c2ccc(F)cc2)c1 (single isomer, unassigned; diastereomer 2)	2600 nM
O=C1NCC(c2ccccc2)C12CCN(C1CCCCC1(O)c1cccc(F)c1)CC2 (single isomer, unassigned; diastereomer 2)	2600 nM
CC(C)(C)c1ccc(C2(O)CCCCC2N2CCC3(CC2)C(=O)NCC3c2ccc(F)cc2)cc1 (single isomer, unassigned; diastereomer 2)	> 30000 nM
O=C1NCC(c2ccc(F)cc2)C12CCN(C1CCCCC1(O)c1cccc(Cl)c1)CC2 (single isomer, unassigned; diastereomer 2)	2340 nM
Cc1ccccc1C1(O)CCCCC1N1CCC2(CC1)C(=O)NCC2c1ccc(F)cc1 (single isomer, unassigned; diastereomer 3)	17700 nM
COc1cccc(C2(O)CCCCC2N2CCC3(CC2)C(=O)NCC3c2ccc(F)cc2)c1 (single isomer, unassigned; diastereomer 4)	5300 nM
O=C1NCC(c2ccccc2)C12CCN(C1CCCCC1(O)c1cccc(F)c1)CC2 (single isomer, unassigned; diastereomer 4)	5300 nM
O=C1NC[C@@H](c2ccccc2)C12CCN(C1CCCCC1c1ccccc1)CC2 (stereo in doubt; 3)	232 nM

Continued, values first:

EC50	Structure (SMILES)
1390 nM	O=C1NCC(c2ccc(F)cc2)C12CCN(C1CCCCC1(O)c1ccccc1OC(F)(F)F)CC2 (stereo not given)
1310 nM	O=C1NCC(c2ccc(F)cc2)C12CCN(C1CCCCC1(O)c1ccc(C(F)(F)F)cc1)CC2 (stereo not given)
1950 nM	N#Cc1ccc(C2(O)CCCCC2N2CCC3(CC2)C(=O)NCC3c2ccc(F)cc2)cc1 (mixture of isomers)
420 nM	Cc1ccc(C2(O)CCCCC2N2CCC3(CC2)C(=O)NCC3c2ccc(F)cc2)cc1 (single isomer, unassigned; diastereomer 1)
596 nM	O=C1NCC(c2ccc(F)cc2)C12CCN(C1CCCCC1(O)c1ccccc1F)CC2 (single isomer, unassigned; diastereomer 1)
596 nM	Cc1ccccc1C1(O)CCCCC1N1CCC2(CC1)C(=O)NCC2c1ccc(F)cc1 (single isomer, unassigned; diastereomer 1)
95 nM	O=C1NCC(c2ccc(F)cc2)C12CCN(C1CCCCC1(O)c1cccc(F)c1)CC2 (single isomer, unassigned; diastereomer 1)
158 nM	O=C1NCC(c2ccccc2)C12CCN(C1CCCCC1(O)c1cccc(F)c1)CC2 (single isomer, unassigned; diastereomer 1)
1180 nM	COc1ccc(C2(O)CCCCC2N2CCC3(CC2)C(=O)NCC3c2ccc(F)cc2)cc1 (single isomer, unassigned; diastereomer 2)
110 nM	O=C1NCC(c2ccc(F)cc2)C12CCN(C1CCCCC1(O)c1ccccc1F)CC2 (single isomer, unassigned; diastereomer 2)
77 nM	O=C1NCC(c2ccc(F)cc2)C12CCN(C1CCCCC1(O)c1cccc(F)c1)CC2 (single isomer, unassigned; diastereomer 2)
437 nM	Cc1ccc(C2(O)CCCCC2N2CCC3(CC2)C(=O)NCC3c2ccc(F)cc2)cc1 (single isomer, unassigned; diastereomer 3)
1130 nM	COc1ccc(C2(O)CCCCC2N2CCC3(CC2)C(=O)NCC3c2ccc(F)cc2)cc1 (single isomer, unassigned; diastereomer 3)
127 nM	COc1cccc(C2(O)CCCCC2N2CCC3(CC2)C(=O)NCC3c2ccc(F)cc2)c1 (single isomer, unassigned; diastereomer 3)
127 nM	O=C1NCC(c2ccccc2)C12CCN(C1CCCCC1(O)c1cccc(F)c1)CC2 (single isomer, unassigned; diastereomer 3)
132 nM	Cc1ccc(C2(O)CCCCC2N2CCC3(CC2)C(=O)NCC3c2ccc(F)cc2)cc1 (single isomer, unassigned; diastereomer 4)
69 nM	O=C1NCC(c2ccc(F)cc2)C12CCN(C1CCCCC1(O)c1ccccc1F)CC2 (single isomer, unassigned; diastereomer 4)
69 nM	Cc1ccccc1C1(O)CCCCC1N1CCC2(CC1)C(=O)NCC2c1ccc(F)cc1 (single isomer, unassigned; diastereomer 4)
646 nM	O=C1NCC(c2ccc(F)cc2)C12CCN(C1CCCCC1(O)c1cccc(F)c1)CC2 (single isomer, unassigned; diastereomer 4)
158 nM	COc1ccc(C2(O)CCCCC2N2CCC3(CC2)C(=O)NCC3c2ccc(F)cc2)cc1 (stereo in doubt)
1770 nM	O=C1NCC(c2ccc(F)cc2)C12CCN(C1CCCCC1(O)c1ccccc1F)CC2 (stereo in doubt)
158 nM	COc1cccc(C2(O)CCCCC2N2CCC3(CC2)C(=O)NCC3c2ccc(F)cc2)c1 (stereo in doubt)
110 nM	Cc1ccccc1C1(O)CCCCC1N1CCC2(CC1)C(=O)NCC2c1ccc(F)cc1 (stereo in doubt)
118 nM	O=C1NCC(c2ccc(F)cc2)C12CCN(C1CCCCC1(O)c1cccc(Cl)c1)CC2 (stereo in doubt; form 1)
73 nM	O=C1NCC(c2ccc(F)cc2)C12CCN(C1CCCCC1(O)c1cccc(Cl)c1)CC2 (stereo in doubt; form 2)

Molecular target: T2, Sodium- and chloride-dependent glycine transporter 2 (Homo sapiens, UniProt Q9Y345)
T2 sequence (Q9Y345 whole entry): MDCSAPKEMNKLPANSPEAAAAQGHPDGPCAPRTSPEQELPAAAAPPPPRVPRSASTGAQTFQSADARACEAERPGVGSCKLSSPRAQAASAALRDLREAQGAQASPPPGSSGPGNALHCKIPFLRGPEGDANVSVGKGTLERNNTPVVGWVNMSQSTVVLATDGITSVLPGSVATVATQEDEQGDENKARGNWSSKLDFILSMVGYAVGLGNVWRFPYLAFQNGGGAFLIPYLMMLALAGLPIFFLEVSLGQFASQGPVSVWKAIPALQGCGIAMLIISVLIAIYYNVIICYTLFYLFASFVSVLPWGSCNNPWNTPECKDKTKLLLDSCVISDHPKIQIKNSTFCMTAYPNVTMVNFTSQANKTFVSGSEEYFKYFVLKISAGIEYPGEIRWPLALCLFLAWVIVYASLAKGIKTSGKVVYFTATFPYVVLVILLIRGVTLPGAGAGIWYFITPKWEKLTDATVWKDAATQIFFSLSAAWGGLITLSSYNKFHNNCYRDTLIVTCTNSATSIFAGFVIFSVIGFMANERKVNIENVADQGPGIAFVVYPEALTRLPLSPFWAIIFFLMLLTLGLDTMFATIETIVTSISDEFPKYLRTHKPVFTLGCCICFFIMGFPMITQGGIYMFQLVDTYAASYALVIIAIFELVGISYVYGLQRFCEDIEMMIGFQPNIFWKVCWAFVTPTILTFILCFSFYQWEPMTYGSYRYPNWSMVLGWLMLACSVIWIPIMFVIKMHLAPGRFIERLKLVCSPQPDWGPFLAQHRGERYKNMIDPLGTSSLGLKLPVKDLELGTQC
Assay: Inhibition of [3H]glycine uptake at human GlyT2 by radiometric assay
Conditions: not given

Structure (SMILES)	EC50
O=C1NCN(c2ccccc2)C12CCN(C1CCCCC1(O)c1ccccc1)CC2 (stereo not given)	72000 nM
O=C1NCC(c2ccccc2)C12CCN(C1CCCCC1(O)c1ccc(F)cc1)CC2 (single isomer, unassigned; diastereomer 3)	> 30000 nM
O=C1NC[C@@H](c2ccccc2)C12CCN(C1CCCCC1c1ccccc1)CC2 (stereo in doubt; 3)	25000 nM

Molecular target: Nociceptin receptor (Homo sapiens, UniProt P41146)
Assay: Displacement of [3H]NOP from human NOP receptors expressed in HEK293 cells
Type: cell-based
Conditions: not given

Chain of Nociceptin receptor (P41146 whole entry): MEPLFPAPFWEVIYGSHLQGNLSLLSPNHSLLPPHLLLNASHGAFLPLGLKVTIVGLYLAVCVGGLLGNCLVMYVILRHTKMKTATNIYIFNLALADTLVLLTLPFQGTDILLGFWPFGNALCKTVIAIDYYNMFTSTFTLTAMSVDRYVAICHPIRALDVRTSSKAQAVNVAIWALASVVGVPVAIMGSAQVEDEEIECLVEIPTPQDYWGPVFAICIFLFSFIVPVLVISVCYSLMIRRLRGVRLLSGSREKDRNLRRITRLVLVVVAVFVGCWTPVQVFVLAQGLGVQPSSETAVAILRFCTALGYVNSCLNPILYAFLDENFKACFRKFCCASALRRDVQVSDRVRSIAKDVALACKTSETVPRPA

Structure (SMILES)	IC50
O=C1NCC(c2ccccc2)C12CCN(C1CCCCC1(O)c1ccc(F)cc1)CC2 (single isomer, unassigned; diastereomer 3)	> 10000 nM
O=C1NC[C@@H](c2ccccc2)C12CCN(C1CCCCC1c1ccccc1)CC2 (stereo in doubt; 3)	> 10000 nM

Same assay, conditions: hek293

Structure (SMILES)	IC50
O=C1NCC(c2ccccc2)C12CCN(C1CCCCC1(O)c1ccc(F)cc1)CC2 (single isomer, unassigned; diastereomer 2)	> 10000 nM
